How the values were obtained:
Assay in all cases: relative viability (nuclei count vs DMSO), 5 days (fraction); higher = more cells survive
[1] = tested on: CAL-12T
Method in brief: (§1)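 Dosing by pin tool came one day after lung cancer cell lines were seeded in 1536-well plates, using either one drug or a fixed anchor-drug dose plus five library-drug doses (not always all listed) in √10 steps. After 5 days, nuclei were counted on 4× images. Relative viability is treated-well nuclei count divided by vehicle-well nuclei count, and values are medians of duplicate plates.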

[2] = tested on: NCI-H2228
Method in brief: as §1

[3] = tested on: UMC-11
Method in brief: as §1

[4] = tested on: LC-2-ad
Method in brief: as §1

[5] = tested on: NCI-H2405
Method in brief: as §1

[6] = tested on: LOU-NH91
Method in brief: as §1

[7] = tested on: HCC-78
Method in brief: as §1

[8] = tested on: NCI-H2170
Method in brief: as §1

[9] = tested on: NCI-H3122
Method in brief: as §1

[10] = tested on: ABC-1
Method in brief: as §1

[11] = tested on: NCI-H1395
Method in brief: as §1

[12] = tested on: ChaGo-K-1
Method in brief: as §1

[13] = tested on: NCI-H2087
Method in brief: as §1

[14] = tested on: NCI-H1793
Method in brief: as §1

[15] = tested on: NCI-H460
Method in brief: as §1

[16] = tested on: NCI-H1651
Method in brief: as §1

[17] = tested on: RERF-LC-KJ
Method in brief: as §1

[18] = tested on: LU99A
Method in brief: as §1

[19] = tested on: NCI-H1755
Method in brief: as §1

[20] = tested on: NCI-H1944
Method in brief: as §1

[21] = tested on: HCC-366
Method in brief: as §1

[22] = tested on: PC-3 [JPC-3]
Method in brief: as §1

## Cc1sc2c(c1C)C(c1ccc(Cl)cc1)=N[C@@H](CC(=O)OC(C)(C)C)c1nnc(C)n1-2 [JQ1] + Cc1cc(Nc2cc(N3CCN(C)CC3)nc(Sc3ccc(NC(=O)C4CC4)cc3)n2)n[nH]1 [Tozasertib] (partner 0.1 µM)
[1]; first compound 0.04 µM
  relative viability: 0.274
[1]; first compound 0.1265 µM
  relative viability: 0.238
[1]; first compound 0.4 µM
  relative viability: 0.24
[1]; first compound 1.265 µM
  relative viability: 0.132
[1]; first compound 4 µM
  relative viability: 0.122
[2]; first compound 0.04 µM
  relative viability: 0.286
[2]; first compound 0.1265 µM
  relative viability: 0.284
[2]; first compound 0.4 µM
  relative viability: 0.207
[2]; first compound 1.265 µM
  relative viability: 0.126
[2]; first compound 4 µM
  relative viability: 0.08
[3]; first compound 0.04 µM
  relative viability: 0.214
[3]; first compound 0.1265 µM
  relative viability: 0.192
[3]; first compound 0.4 µM
  relative viability: 0.173
[3]; first compound 1.265 µM
  relative viability: 0.175
[3]; first compound 4 µM
  relative viability: 0.162
[4]; first compound 0.04 µM
  relative viability: 0.45
[4]; first compound 0.1265 µM
  relative viability: 0.351
[4]; first compound 0.4 µM
  relative viability: 0.351
[4]; first compound 1.265 µM
  relative viability: 0.297
[4]; first compound 4 µM
  relative viability: 0.232
[5]; first compound 0.04 µM
  relative viability: 0.716
[5]; first compound 0.1265 µM
  relative viability: 0.712
[5]; first compound 0.4 µM
  relative viability: 0.723
[5]; first compound 1.265 µM
  relative viability: 0.584
[5]; first compound 4 µM
  relative viability: 0.498
[6]; first compound 0.04 µM
  relative viability: 0.653
[6]; first compound 0.1265 µM
  relative viability: 0.453
[6]; first compound 0.4 µM
  relative viability: 0.255
[6]; first compound 1.265 µM
  relative viability: 0.359
[6]; first compound 4 µM
  relative viability: 0.299
[7]; first compound 0.04 µM
  relative viability: 0.474
[7]; first compound 0.1265 µM
  relative viability: 0.389
[7]; first compound 0.4 µM
  relative viability: 0.4
[7]; first compound 1.265 µM
  relative viability: 0.299
[7]; first compound 4 µM
  relative viability: 0.302
[8]; first compound 0.04 µM
  relative viability: 0.711
[8]; first compound 0.1265 µM
  relative viability: 0.64
[8]; first compound 0.4 µM
  relative viability: 0.467
[8]; first compound 1.265 µM
  relative viability: 0.352
[8]; first compound 4 µM
  relative viability: 0.194
[9]; first compound 0.04 µM
  relative viability: 0.353
[9]; first compound 0.4 µM
  relative viability: 0.189
[9]; first compound 1.265 µM
  relative viability: 0.0696
[9]; first compound 4 µM
  relative viability: 0.0737
[10]; first compound 0.04 µM
  relative viability: 0.187
[10]; first compound 0.1265 µM
  relative viability: 0.18
[10]; first compound 0.4 µM
  relative viability: 0.196
[10]; first compound 1.265 µM
  relative viability: 0.175
[10]; first compound 4 µM
  relative viability: 0.179
[11]; first compound 0.04 µM
  relative viability: 0.734
[11]; first compound 0.1265 µM
  relative viability: 0.681
[11]; first compound 0.4 µM
  relative viability: 0.652
[11]; first compound 1.265 µM
  relative viability: 0.495
[11]; first compound 4 µM
  relative viability: 0.419
[12]; first compound 0.04 µM
  relative viability: 0.205
[12]; first compound 0.1265 µM
  relative viability: 0.224
[12]; first compound 0.4 µM
  relative viability: 0.168
[12]; first compound 1.265 µM
  relative viability: 0.158
[12]; first compound 4 µM
  relative viability: 0.164
[13]; first compound 0.04 µM
  relative viability: 0.253
[13]; first compound 0.1265 µM
  relative viability: 0.212
[13]; first compound 0.4 µM
  relative viability: 0.205
[13]; first compound 1.265 µM
  relative viability: 0.128
[13]; first compound 4 µM
  relative viability: 0.144
[14]; first compound 0.04 µM
  relative viability: 0.355
[14]; first compound 0.1265 µM
  relative viability: 0.316
[14]; first compound 0.4 µM
  relative viability: 0.282
[14]; first compound 1.265 µM
  relative viability: 0.185
[14]; first compound 4 µM
  relative viability: 0.226
[15]; first compound 0.04 µM
  relative viability: 0.402
[15]; first compound 0.4 µM
  relative viability: 0.119
[15]; first compound 1.265 µM
  relative viability: 0.0684
[15]; first compound 4 µM
  relative viability: 0.0339
[16]; first compound 0.04 µM
  relative viability: 0.69
[16]; first compound 0.1265 µM
  relative viability: 0.683
[16]; first compound 0.4 µM
  relative viability: 0.672
[16]; first compound 1.265 µM
  relative viability: 0.31
[16]; first compound 4 µM
  relative viability: 0.24
[17]; first compound 0.04 µM
  relative viability: 0.496
[17]; first compound 0.1265 µM
  relative viability: 0.299
[17]; first compound 0.4 µM
  relative viability: 0.315
[17]; first compound 1.265 µM
  relative viability: 0.222
[17]; first compound 4 µM
  relative viability: 0.213
[18]; first compound 0.04 µM
  relative viability: 0.277
[18]; first compound 0.1265 µM
  relative viability: 0.304
[18]; first compound 0.4 µM
  relative viability: 0.237
[18]; first compound 1.265 µM
  relative viability: 0.188
[18]; first compound 4 µM
  relative viability: 0.159
[19]; first compound 0.04 µM
  relative viability: 0.587
[19]; first compound 0.1265 µM
  relative viability: 0.584
[19]; first compound 0.4 µM
  relative viability: 0.566
[19]; first compound 1.265 µM
  relative viability: 0.444
[19]; first compound 4 µM
  relative viability: 0.411
[20]; first compound 0.04 µM
  relative viability: 0.231
[20]; first compound 0.1265 µM
  relative viability: 0.225
[20]; first compound 0.4 µM
  relative viability: 0.227
[20]; first compound 1.265 µM
  relative viability: 0.208
[20]; first compound 4 µM
  relative viability: 0.185
[21]; first compound 0.04 µM
  relative viability: 0.112
[21]; first compound 0.4 µM
  relative viability: 0.0922
[21]; first compound 1.265 µM
  relative viability: 0.0515
[21]; first compound 4 µM
  relative viability: 0.0708
[22]; first compound 0.04 µM
  relative viability: 0.924
[22]; first compound 0.1265 µM
  relative viability: 0.935
[22]; first compound 0.4 µM
  relative viability: 0.588
[22]; first compound 1.265 µM
  relative viability: 0.502
[22]; first compound 4 µM
  relative viability: 0.296

Reference: the supplement of paper PMC10307832
